These compounds were tested against GDP-bound KRAS protein (aa 1-169), containing both G12C and C118A amino acid substitutions (Homo sapiens (Human), UniProt P01116, C118A/G12C) (assay: Coupled nucleotide exchange assay (SOS-mediated nucleotide exchange, AlphaScreen)). Settings: 5 min compound pre-incubation.
Format: biochemical
Protocol: Coupled Nucleotide Exchange Assay:
Following compound pre-incubation, purified SOS protein (aa 564-1049) and GTP (Roche 10106399001) were added to the assay wells and incubated for an additional 30 min (for 5 min compound pre-incubation) or 1 hour (for 2 hour compound pre-incubation). […] The assay plates were then read on a PerkinElmer EnVision Multilabel Reader, using AlphaScreen® technology, and data were analyzed using a 4-parameter logistic model to calculate IC50 values.

GDP-bound KRAS protein (aa 1-169), containing both G12C and C118A amino acid substitutions, sequence (P01116 other isoform, or with tags, fused parts or gaps G12C/C118A): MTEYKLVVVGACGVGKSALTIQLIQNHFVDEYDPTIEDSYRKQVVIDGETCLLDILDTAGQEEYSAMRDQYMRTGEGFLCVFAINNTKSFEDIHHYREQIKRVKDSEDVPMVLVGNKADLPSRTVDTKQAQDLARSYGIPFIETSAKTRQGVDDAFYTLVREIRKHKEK

Q: For C=CC(=O)N1C[C@H](C)N(c2nc(=O)n(-c3c(C)cc(C4CC4)nc3C(C)C)c3nc(-c4ccccc4F)c(Cl)cc23)C[C@H]1C (single isomer, unassigned) [Example 164-2], which “Coupled exchange IC50 (5 min; μM)” value is on record?
A: The value was 3.44 µM.

Q: With C=CC(=O)N1C[C@H](C)N(c2nc(=O)n(-c3c(C)cc(CC)nc3C(C)C)c3nc(-c4ccccc4F)c(Cl)cc23)C[C@H]1C (single isomer, unassigned) [Example 166-2] as the compound, how does the “Coupled exchange IC50 (5 min; μM)” value read?
A: Its value is 1.032 µM.

Q: How did the “Coupled exchange IC50 (5 min; μM)” value turn out when C=CC(=O)N1C[C@H](C)N(c2nc(=O)n(-c3c(C(C)C)cc(N4CCC4)nc3C(C)C)c3nc(-c4ccccc4F)c(Cl)cc23)C[C@H]1C (single isomer, unassigned) [Example 182-1] was run?
A: Its value is 0.14 µM.

Q: With C=CC(=O)N1C[C@H](C)N(c2nc(=O)n(-c3c(C(C)C)cc(N4CCC4)nc3C(C)C)c3nc(-c4ccccc4F)c(Cl)cc23)C[C@H]1C (single isomer, unassigned) [Example 182-2] as the compound, how does the “Coupled exchange IC50 (5 min; μM)” value read?
A: The value was 0.187 µM.

Q: With C=CC(=O)N1CCN(c2nc(=O)n(-c3c(C)cc(N)nc3C(C)C)c3nc(-c4ccccc4F)c(Cl)cc23)[C@@H](C)C1 (single isomer, unassigned) [Example 183-1] as the compound, how does the “Coupled exchange IC50 (5 min; μM)” value read?
A: The value was 0.61 µM.

Q: C=CC(=O)N1C[C@H](C)N(c2nc(=O)n(-c3c(N)ncnc3C(C)C)c3nc(-c4ccccc4F)c(Cl)cc23)C[C@H]1C (single isomer, unassigned) [Example 189-2] was tested. Which “Coupled exchange IC50 (5 min; μM)” value did it give?
A: The value was 14.7 µM.

Q: Which “Coupled exchange IC50 (5 min; μM)” value does the source give for C=CC(=O)N1C[C@H](C)N(c2nc(=O)n(-c3c(C)nc(Cl)nc3C(C)C)c3nc(-c4ccccc4F)c(Cl)cc23)C[C@H]1C (single isomer, unassigned) [Example 191-1] here?
A: Its value is 2.99 µM.

Q: Which “Coupled exchange IC50 (5 min; μM)” value does the source give for C=CC(=O)N1C[C@H](C)N(c2nc(=O)n(-c3c(C)ncnc3C(C)C)c3nc(-c4ccccc4F)c(Cl)cc23)C[C@H]1C (single isomer, unassigned) [Example 194-2] here?
A: The value was 1.45 µM.

Q: Which “Coupled exchange IC50 (5 min; μM)” value does the source give for C=CC(=O)N1C[C@H](C)N(c2nc(=O)n(-c3c(C)nc(Br)nc3C(C)C)c3nc(-c4ccccc4F)c(Cl)cc23)C[C@H]1C (single isomer, unassigned) [Example 197-1] here?
A: Its value is 1.59 µM.

Q: For C=CC(=O)N1C[C@H](C)N(c2nc(=O)n(-c3c(C(C)C)cccc3[S+](C)[O-])c3nc(-c4ccccc4F)c(Cl)cc23)C[C@H]1C (single isomer, unassigned) [Example 209-2], which “Coupled exchange IC50 (5 min; μM)” value is on record?
A: Its value is 1.34 µM.

Q: How did the “Coupled exchange IC50 (5 min; μM)” value turn out when C=CC(=O)N1C[C@H](C)N(c2nc(=O)n(-c3c(C)cc([S+](C)[O-])cc3C(C)C)c3nc(-c4ccccc4C)c(Cl)cc23)C[C@H]1C (single isomer, unassigned) [Example 213-1] was run?
A: The value was 1.5 µM.

Q: Which “Coupled exchange IC50 (5 min; μM)” value does the source give for C=CC(=O)N1C[C@H](C)N(c2nc(=O)n(-c3c(C)cc([S+](C)[O-])cc3C(C)C)c3nc(-c4ccccc4C)c(Cl)cc23)C[C@H]1C (single isomer, unassigned) [Example 213-4] here?
A: The value was 1.51 µM.

Q: With C=CC(=O)N1C[C@H](C)N(c2nc(=O)n(-c3c(C)cc(S(C)(=O)=O)cc3C(C)C)c3nc(-c4ccccc4F)c(Cl)cc23)C[C@H]1C (single isomer, unassigned) [Example 215-1] as the compound, how does the “Coupled exchange IC50 (5 min; μM)” value read?
A: The value was 3.79 µM.

Q: For C=CC(=O)N1C[C@H](C)N(c2nc(=O)n(C3CCCCC3)c3nc(-c4ccccc4F)c(Cl)cc23)C[C@H]1C [110-2, 6-Chloro-1-cyclohexyl-4-[(2S,5R)-2,5-dimethyl-4-prop-2-enoyl-piperazin-1-yl]-7-(2-fluorophenyl)pyrido [2,3-d]pyrimidin-2-one], which “Coupled exchange IC50 (5 min; μM)” value is on record?
A: Its value is 13.4 µM.

Same assay, conditions: read-out: Coupled exchange IC50 (5 min; μM); 5 min compound pre-incubation

Q: For C=CC(=O)N1C[C@H](C)N(c2nc(=O)n(-c3c(C(C)C)cccc3S(C)(=O)=O)c3nc(-c4ccccc4F)c(Cl)cc23)C[C@H]1C (single isomer, unassigned) [Example 208-1], which IC50 is on record?
A: Its IC50 is 2.56 µM.

Q: Which IC50 does the source give for C=CC(=O)N1[C@H](C)CN(c2nc(=O)n(-c3c(C)ccnc3C(C)C)c3nc(-c4ccccc4F)c(Cl)nc23)C[C@@H]1C (single isomer, unassigned) [Example 224-1] here?
A: Its IC50 is 23.3 µM.

Q: Which IC50 does the source give for C=CC(=O)N1[C@H](C)CN(c2nc(=O)n(-c3c(C)ccnc3C(C)C)c3nc(-c4ccccc4F)c(Cl)nc23)C[C@@H]1C (single isomer, unassigned) [Example 224-2] here?
A: The IC50 was 1.29 µM.

Q: Which IC50 does the source give for C=CC(=O)N1C[C@H](C)N(c2nc(=O)n(-c3c(C)ccnc3C(C)C)c3nc(-c4ccccc4F)c(C)nc23)C[C@H]1C (single isomer, unassigned) [Example 225-1] here?
A: Its IC50 is 7.62 µM.

Q: For C=CC(=O)N1C[C@H](C)N(c2nc(=O)n(-c3c(C)ccnc3C(C)C)c3nc(-c4ccccc4F)c(C)nc23)C[C@H]1C (single isomer, unassigned) [Example 225-2], which IC50 is on record?
A: The IC50 was 0.501 µM.

Q: With C=CC(=O)N1C[C@H](C)N(c2nc(=O)n(-c3c(C)ccnc3C(C)C)c3nc(-c4ccccc4F)c(C)nc23)C[C@H]1C (single isomer, unassigned) [Example 225] as the compound, how does the IC50 read?
A: Its IC50 is 4.43 µM.

Q: Which IC50 does the source give for C=CC(=O)N1C[C@H](C)N(c2nc(=O)n(-c3c(C)ccnc3C(C)C)c3nc(-c4ncccc4OC)c(Cl)cc23)C[C@H]1C [96-2] here?
A: Its IC50 is 1.22 µM.

Q: C=CC(=O)N1C[C@H](C)N(c2nc(=O)n(-c3c(N(C)C)ccnc3C(C)C)c3nc(-c4ccccc4S(C)(=O)=O)c(Cl)cc23)C[C@H]1C [Example 55-53, 6-Chloro-1-[4-(dimethylamino)-2-isopropyl-3-pyridyl]-4-[(2S,5R)-2,5-dimethyl-4-prop-2-enoyl-piperazin-1-yl]-7-(2-methylsulfonylphenyl)pyrido[2,3-d]pyrimidin-2-one] was tested. Which IC50 did it give?
A: The IC50 was 0.356 µM.

Q: With C=CC(=O)N1C[C@H](C)N(c2nc(=O)n(-c3ccccc3P(C)(C)=O)c3nc(-c4ccccc4F)c(Cl)cc23)C[C@H]1C [Example 55-55, 6-Chloro-1-(2-dimethylphosphorylphenyl)-4-[(2S,5R)-2,5-dimethyl-4-prop-2-enoyl-piperazin-1-yl]-7-(2-fluorophenyl)pyrido[2,3-d]pyrimidin-2-one] as the compound, how does the IC50 read?
A: The IC50 was 3.14 µM.

Q: With C=CC(=O)N1C[C@H](C)N(c2nc(=O)n(-c3c(C(C)C)ncnc3C(C)C)c3nc(-c4ccccc4C#N)c(Cl)cc23)C[C@H]1C [Example 100-3, 2-[6-Chloro-1-(4,6-diisopropylpyrimidin-5-yl)-4-[(2S,5R)-2,5-dimethyl-4-prop-2-enoyl-piperazin-1-yl]-2-oxo-pyrido[2,3-d]pyrimidin-7-yl]benzonitrile] as the compound, how does the IC50 read?
A: Its IC50 is 0.763 µM.

Q: How did the IC50 turn out when C=CC(=O)N1CCN(c2nc(=O)n(CC(C)(C)C)c3nc(Cl)c(Cl)cc23)CC1 [Example 100-5, 6,7-Dichloro-1-(2,2-dimethylpropyl)-4-(4-prop-2-enoylpiperazin-1-yl)pyrido[2,3-d]pyrimidin-2-one] was run?
A: The IC50 was 58.3 µM.

Q: How did the IC50 turn out when C=CC(=O)N1CCN(c2nc(=O)n(CC(C)(C)C)c3ncccc23)CC1 [Example 100-6, 1-(2,2-dimethylpropyl)-4-(4-prop-2-enoylpiperazin-1-yl)pyrido[2,3-d]pyrimidin-2-one] was run?
A: Its IC50 is 250 µM.

Q: C=CC(=O)N1C[C@H](C)N(c2nc(=O)n(-c3c(C(C)C)ncnc3C(C)C)c3nc(-c4ccccc4S(C)(=O)=O)c(Cl)cc23)C[C@H]1C [Example 100-7, 6-Chloro-1-(4,6-diisopropylpyrimidin-5-yl)-4-[(2S,5R)-2,5-dimethyl-4-prop-2-enoyl-piperazin-1-yl]-7-(2-methylsulfonylphenyl) pyrido[2,3-d]pyrimidin-2-one] was tested. Which IC50 did it give?
A: Its IC50 is 5.1 µM.
